From US9227971B2, “Pyrazolo[1,5-a]pyrimidine compounds as mTOR inhibitors” (Merck Sharp & Dohme Corp., priority 2010, dated 2016) come the findings set out here.

pIC50: −log10 of the molar value. Read-outs that look alike come from different tables or passages of the source.

The subject of test [1] is phosphorylated AKT Ser473 (pAKT S473), mTORC2 activity, PC3 cells. The test can be described thus: mTOR target engagement assay, immunofluorescent cell-based, pAKT S473 readout (mTORC2 activity). Conditions: Homo sapiens. Put shortly: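 After blocking, cells were stained overnight at 4 °C with anti-pAKT S473 antibody, then a fluorescent secondary; inhibition was read as reduced fluorescence intensity.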

Test [2] concerns phosphorylated 4E-BP1 Thr37/46 (p4E-BP1 Thr37/46), mTORC1 activity, PC3 cells. The test can be described thus: mTOR target engagement assay, immunofluorescent cell-based, p4E-BP1 Thr37/46 readout (mTORC1 activity). Conditions: Homo sapiens, read-out: p4E-BP1 Thr37/46 IC50. In short, it runs like this:
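PTEN-mutant PC3 prostate cells were treated with serially diluted compound in 5% FBS F12 medium (0.25% DMSO) for ninety minutes at 37° C, glyoxal-fixed, then immunostained overnight at 4° C for p4E-BP1 Thr37/46 with an Alexa Fluor 488 secondary. IC50 came from four-parameter fits of fluorescence, DMSO-only wells defining 100%.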

Setting [3] is: PC-3, PC3 cells, compound treatment ninety minutes at 37° C.

With `CCc1c([C@@H]2C[C@H]3CC[C@@H](C2)N3C(=O)c2nc(C)n[nH]2)nc2c(-c3ccc(-c4ccccc4)nc3)cnn2c1N` [Compound 5.9, ((1R,3s,5S)-3-(7-amino-6-ethyl-3-(6-phenylpyridin-3-yl)pyrazolo[1,5-a]pyrimidin-5-yl)-8-azabicyclo[3.2.1]octan-8-yl)(3-methyl-1H-1,2,4-triazol-5-yl)methanone], the pIC50 in test [1] (setting [3]) and in test [2] (setting [3]) was 7.00 to 9.00 throughout.
Consider `CC(=O)c1c([C@@H]2C[C@H]3CC[C@@H](C2)N3C(=O)c2nnc(N)[nH]2)nc2c(-c3ccc(C(C)(C)O)nc3)cnn2c1N` [Compound 7.13, 1-(7-amino-5-((1R,3s,5S)-8-(5-amino-4H-1,2,4-triazole-3-carbonyl)-8-azabicyclo[3.2.1]octan-3-yl)-3-(6-(2-hydroxypropan-2-yl)pyridin-3-yl)pyrazolo[1,5-a]pyrimidin-6-yl)ethanone], for which the pIC50 in test [1] (setting [3]) and in test [2] (setting [3]) was 6.00 to 7.00 throughout.
As for `Nc1c(C2CC2)c([C@@H]2C[C@H]3CC[C@@H](C2)N3S(=O)(=O)c2nnc[nH]2)nc2c(-c3ccc(-c4ccccc4)nc3)cnn12` [Compound 4.3, 5-((1R,3a,5S)-8-(4H-1,2,4-triazol-3-ylsulfonyl)-8-azabicyclo[3.2.1]octan-3-yl)-6-cyclopropyl-3-(6-phenylpyridin-3-yl)pyrazolo[1,5-a]pyrimidin-7-amine], the pIC50 in test [1] (setting [3]) and in test [2] (setting [3]) was 5.00 to 6.00 each time.
With `Nc1c(C2CC2)c([C@@H]2C[C@H]3CC[C@@H](C2)N3C(=O)c2nnc[nH]2)nc2c(-c3ccc(C4(O)CCC4)nc3)cnn12` [Compound 7.43, ((1R,3s,5S)-3-(7-amino-6-cyclopropyl-3-(6-(1-hydroxycyclobutyl)pyridin-3-yl)pyrazolo[1,5-a]pyrimidin-5-yl)-8-azabicyclo[3.2.1]octan-8-yl)(4H-1,2,4-triazol-3-yl)methanone], the pIC50 in test [1] (PC-3, Table 7-8, PC3 cells) is 6.00 to 7.00; in test [2] (PC-3, Table 7-8, PC3 cells), 6.00 to 7.00.
For the molecule `Nc1c(CO)c([C@@H]2C[C@H]3CC[C@@H](C2)N3C(=O)c2nnc[nH]2)nc2c(-c3ccc(-c4ccccc4)nc3)cnn12` [Compound 5.7, ((1R,3s,5S)-3-(7-amino-6-(hydroxymethyl)-3-(6-phenylpyridin-3-yl)pyrazolo[1,5-a]pyrimidin-5-yl)-8-azabicyclo[3.2.1]octan-8-yl)(4H-1,2,4-triazol-3-yl)methanone], the pIC50 in test [1] (setting [3]) and in test [2] (setting [3]) was 7.00 to 9.00 throughout.
Regarding `CC(=O)c1c([C@@H]2C[C@H]3CC[C@@H](C2)N3C(=O)c2nnc[nH]2)nc2c(-c3cnc(C(C)O)s3)cnn2c1N` (stereo partly drawn) [Compound 7.36, 1-(5-((1R,3s,5S)-8-(4H-1,2,4-triazole-3-carbonyl)-8-azabicyclo[3.2.1]octan-3-yl)-7-amino-3-(2-(1-hydroxyethyl)thiazol-5-yl)pyrazolo[1,5-a]pyrimidin-6-yl)ethanone], the pIC50 in test [1] (setting [3]) and in test [2] (setting [3]) was 5.00 to 6.00 each time.
For the molecule `CS(=O)(=O)c1c([C@@H]2C[C@H]3CC[C@@H](C2)N3C(=O)c2ccn[nH]2)nc2c(-c3cn[nH]c3)cnn2c1N` [Compound 3.117, ((1R,3a,4S)-3-(7-amino-6-(methylsulfonyl)-3-(1H-pyrazol-4-yl)pyrazolo[1,5-a]pyrimidin-5-yl)-8-azabicyclo[3.2.1]octan-8-yl)(1H-pyrazol-5-yl)methanone], the pIC50 in test [1] (PC-3, Table 3-1, PC3 cells) is under 5.00; in test [2] (PC-3, Table 3-1, PC3 cells) it was under 5.00.
For the molecule `CC(=O)c1c([C@@H]2C[C@H]3CC(O)[C@@H](C2)N3C(=O)CO)nc2c(-c3ccc(-c4ccccc4)nc3)cnn2c1N` (stereo partly drawn) [Compound 8.35, 1-((1S,3R,5R)-3-(6-acetyl-7-amino-3-(6-phenylpyridin-3-yl)pyrazolo[1,5-a]pyrimidin-5-yl)-6-hydroxy-8-azabicyclo[3.2.1]octan-8-yl)-2-hydroxyethanone], the pIC50 in test [1] (PC-3, PC3 cells) is 7.00 to 9.00; in test [2] (PC-3, PC3 cells), 7.00 to 9.00.
On to `CC(=O)c1c([C@@H]2C[C@H]3CC[C@@H](C2)N3C(=O)c2nnc[nH]2)nc2c(-c3ccc([C@@H](C)O)cc3)cnn2c1N` [Compound 7.21, 1-(5-((1R,3s,5S)-8-(4H-1,2,4-triazole-3-carbonyl)-8-azabicyclo[3.2.1]octan-3-yl)-7-amino-3-(4-((R)-1-hydroxyethyl)phenyl)pyrazolo[1,5-a]pyrimidin-6-yl)ethanone], for which the pIC50 in test [1] (setting [3]) and in test [2] (setting [3]) was 7.00 to 9.00 in each case.
With `CCC(=O)NNc1ccc(-c2cnn3c(N)c(C(C)=O)c([C@@H]4C[C@H]5CC[C@@H](C4)N5C(=O)CO)nc23)cn1` [Compound 8.52, N′-(5-(6-acetyl-7-amino-5-((1R,3s,5S)-8-(2-hydroxyacetyl)-8-azabicyclo[3.2.1]octan-3-yl)pyrazolo[1,5-a]pyrimidin-3-yl)pyridin-2-yl)propionohydrazide], the pIC50 in test [1] (PC-3, PC3 cells) was 5.00 to 6.00; in test [2] (PC-3, PC3 cells), under 5.00.
For `COc1ccc(-c2ccc(-c3cnn4c(N)c(S(C)(=O)=O)c([C@@H]5C[C@H]6CC[C@@H](C5)N6C(=O)c5nnc[nH]5)nc34)cn2)cc1C#N` [Compound 3.92, 5-(5-(5-((1R,3s,5S)-8-(4H-1,2,4-triazole-3-carbonyl)-8-azabicyclo[3.2.1]octan-3-yl)-7-amino-6-(methylsulfonyl)pyrazolo[1,5-a]pyrimidin-3-yl)pyridin-2-yl)-2-methoxybenzonitrile], the pIC50 in test [1] (PC-3, Table 3-1, PC3 cells) was 6.00 to 7.00; in test [2] (PC-3, Table 3-1, PC3 cells), 6.00 to 7.00.
On to `CC(=O)c1c([C@@H]2C[C@H]3CC[C@@H](C2)N3C(=O)c2nnc[nH]2)nc2c(-c3cnc(C(C)(C)O)c(Cl)c3)cnn2c1N` [Compound 1.1.181, 1-(5-((1R,3s,5S)-8-(4H-1,2,4-triazole-3-carbonyl)-8-azabicyclo[3.2.1]octan-3-yl)-7-amino-3-(5-chloro-6-(2-hydroxypropan-2-yl)pyridin-3-yl)pyrazolo[1,5-a]pyrimidin-6-yl)ethanone], for which the pIC50 in test [1] (setting [3]) and in test [2] (setting [3]) was 7.00 to 9.00 each time.
On to `CC(=O)c1c([C@@H]2C[C@H]3CC[C@@H](C2)N3C(=O)c2cnn[nH]2)nc2c(-c3ccc(C(C)(C)O)nc3)cnn2c1N` [Compound 7.10, 1-(5-((1R,3s,5S)-8-(1H-1,2,3-triazole-5-carbonyl)-8-azabicyclo[3.2.1]octan-3-yl)-7-amino-3-(6-(2-hydroxypropan-2-yl)pyridin-3-yl)pyrazolo[1,5-a]pyrimidin-6-yl)ethanone], for which the pIC50 in test [1] (setting [3]) and in test [2] (setting [3]) was 6.00 to 7.00 in each case.
Regarding `CCc1c([C@@H]2C[C@H]3CC[C@@H](C2)N3C(=O)c2nnc[nH]2)nc2c(-c3ccc(-c4ccccc4)nc3)cnn2c1N` [Compound 5.8, ((1R,3s,5S)-3-(7-amino-6-ethyl-3-(6-phenylpyridin-3-yl)pyrazolo[1,5-a]pyrimidin-5-yl)-8-azabicyclo[3.2.1]octan-8-yl)(4H-1,2,4-triazol-3-yl)methanone], the pIC50 in test [1] (setting [3]) and in test [2] (setting [3]) was 7.00 to 9.00 throughout.
For the molecule `CC(=O)Nc1nnc(C(=O)N2[C@@H]3CC[C@H]2C[C@H](c2nc4c(-c5ccc(-c6ccccc6)nc5)cnn4c(N)c2C2CC2)C3)[nH]1` [Compound 4.28, N-(5-((1R,3s,5S)-3-(7-amino-6-cyclopropyl-3-(6-phenylpyridin-3-yl)pyrazolo[1,5-a]pyrimidin-5-yl)-8-azabicyclo[3.2.1]octane-8-carbonyl)-4H-1,2,4-triazol-3-yl)acetamide], the pIC50 in test [1] (setting [3]) and in test [2] (setting [3]) was 6.00 to 7.00 each time.
For the molecule `COc1cc(F)c(-c2ccc(-c3cnn4c(N)c(C(C)=O)c([C@@H]5C[C@H]6CC[C@@H](C5)N6C(=O)c5nnc[nH]5)nc34)cn2)cc1F` [Compound 1.1.72, 1-(5-((1R,3s,5S)-8-(4H-1,2,4-triazole-3-carbonyl)-8-azabicyclo[3.2.1]octan-3-yl)-7-amino-3-(6-(2,5-difluoro-4-methoxyphenyl)pyridin-3-yl)pyrazolo[1,5-a]pyrimidin-6-yl)ethanone], the pIC50 in test [1] (setting [3]) and in test [2] (setting [3]) was 7.00 to 9.00 throughout.
On to `CC(=O)c1c([C@@H]2C[C@H]3CC[C@@H](C2)N3C(=O)c2nnc[nH]2)nc2c(-c3ccc(C)nc3)cnn2c1N` [Compound 1.1.79, 1-(5-((1R,3s,5S)-8-(4H-1,2,4-triazole-3-carbonyl)-8-azabicyclo[3.2.1]octan-3-yl)-7-amino-3-(6-methylpyridin-3-yl)pyrazolo[1,5-a]pyrimidin-6-yl)ethanone], for which the pIC50 in test [1] (setting [3]) and in test [2] (setting [3]) was 7.00 to 9.00 throughout.
Regarding `CC(=O)c1c([C@@H]2C[C@H]3CC[C@@H](C2)N3C(=O)c2cncc(O)c2)nc2c(-c3ccc(-c4ccccc4)nc3)cnn2c1N` [Compound 1.1.50, 1-(7-amino-5-((1R,3s,5S)-8-(5-hydroxynicotinoyl)-8-azabicyclo[3.2.1]octan-3-yl)-3-(6-phenylpyridin-3-yl)pyrazolo[1,5-a]pyrimidin-6-yl)ethanone], the pIC50 in test [1] (setting [3]) and in test [2] (setting [3]) was 6.00 to 7.00 in each case.
Turning to `CC(=O)c1c([C@@H]2C[C@H]3CC[C@@H](C2)N3C(=O)c2nnc(C)[nH]2)nc2c(-c3ccc(-c4ncc[nH]4)nc3)cnn2c1N` [Compound 6.21, 1-(3-(6-(1H-imidazol-2-yl)pyridin-3-yl)-7-amino-5-((1R,3s,5S)-8-(5-methyl-4H-1,2,4-triazole-3-carbonyl)-8-azabicyclo[3.2.1]octan-3-yl)pyrazolo[1,5-a]pyrimidin-6-yl)ethanone], the pIC50 in test [1] (PC-3, Table 6-1, PC3 cells) was 7.00 to 9.00; in test [2] (PC-3, Table 6-1, PC3 cells), 7.00 to 9.00.
